From US8058228B2, “Leptin peptide antagonists” (Boston Biomedical Research Institute, priority 2004, dated 2011)

System: OB-R
Assay: Competitive binding of 125I-human leptin to OB-R in rabbit endometrial cell lysates
Method: ^125I-human leptin served as ligand and LPA-2 and LPA-2Sc as competitors for the binding to OB-R in cellular extracts. All compounds were diluted in assay buffer (50 mM Tris and 100 mM NaCl, pH 8.5) to promote proper re-folding. Each assay tube contained 50 μl of cellular lysate (100 μg protein from 10^6 cells cultured for two days in basal medium), 50 μl of ^125I-human leptin (100.000 cpm), and 50 μl of LPAs (providing 10^−5-10^−14 M/tube). The tubes were incubated for 24 h at room temperature. Then, 250 μl of 1% BSA (w/v) and 500 μl of 20% polyethylene glycol (w/v) in PBS were added and the tubes were incubated for an additional 12-h period at 4° C. The tubes were centrifuged at 12.000 g for 15 min at 4° C. After careful aspiration of supernatant and complete drying of the tube-walls with filter paper, ^125I-human leptin binding in the precipitates was measured (Beckman 5000, counter). The binding of ^125I-leptin to OB-R in absence of LPAs was set at 100%, and LPA competitive binding values were expressed as percentages of total cpm. Affinity binding constants for LPAs were calculated from the competition curves.

With “SRNVIQISNDLENLRDLLHVLAFSKS [LPA-2, 26 amino acid peptide, residues 70-95 of helix III of the human leptin molecule; leptin peptide antagonist]” the “competition with 125I-leptin for binding to OB-R” value (cellular lysates of rabbit endometrial cells) was “displaced” and the Ki (competition with 125I-leptin, OB-R expressed by rabbit endometrial cells (rEEC and rESC), protein extracts) was ~0.06 nM.
